Laboratory results taken from patent publication US20040002119A1, “Method of predicting cell-based assay results using binding profiles” (priority 2002, published 2004).
“Also recorded” adds a separate entry of the source. Like-named read-outs stand apart in the source and are kept apart here.

What was measured:
ERα LBD = target: T1, ERα LBD (Homo sapiens, UniProt P03372); format: binding
T1 sequence (P03372 311-547 limits assumed): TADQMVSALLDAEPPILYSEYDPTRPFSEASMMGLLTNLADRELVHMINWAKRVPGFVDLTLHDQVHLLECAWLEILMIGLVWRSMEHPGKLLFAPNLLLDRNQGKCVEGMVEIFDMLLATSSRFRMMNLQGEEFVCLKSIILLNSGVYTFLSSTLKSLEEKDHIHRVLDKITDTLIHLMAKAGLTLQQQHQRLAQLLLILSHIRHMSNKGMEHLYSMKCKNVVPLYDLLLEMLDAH
Description: The peptide sequences were synthesized with biotin at one end, and coupled to fluorescently distinct microsphere populations (5.6 μm streptavidin-coated latex microsphere particles). Multiple peptides of the same sequence were coupled to microspheres having the same fluorescent label, creating 46 fluorescently distinct microsphere populations (45 peptides plus no-peptide control). The microspheres populations were then multiplexed (combined). Alternatively, the ERα LBD could be coupled to the fluorescent microspheres.
The Estrogen Receptor a Ligand Binding Domain (ERα LBD) was coupled to the fluorophore Alexa 532 (Molecular Probes, Inc., Eugene, Oreg.), which is suitable for use with 532 nm excitation sources. The excitation and emission spectra of Alexa 532 is intermediate between the green-fluorescent Alexa Fluor 488 dye and the orange-fluorescent Alexa Fluor 546 dye.
The resulting binding of peptide to LBD is detected by flow cytometric analysis as is known in the art (see, e.g. WO 01/75443). In the present example, binding of ERα to a microsphere subset was indicated by the acquisition of orange fluorescence, detected using a LX-100 instrument (Luminex Corporation, Austin, Tex.). The above procedure is repeated for each compound to create a library of Binding Profiles.
Binding Profiles for each of the six phage-identified peptides described above were also generated using the same multiplexed assay as described above.

[1] = tested on: human endometrial cells (Ishikawa cell line); assay: Ishikawa endometrial cell stimulation assay (intrinsic alkaline phosphatase); format: cell-based; details: absorbance at 405 nm minus blank; FIG. 13
Description: The stimulation of human endometrial cells (Ishikawa cell line) was determined by increases in intrinsic alkaline phosphatase activity. […] The % Emax is defined as 100×(spectrophotometric reading at 405 nm with compound-blank)/(spectrophotometric reading at 405 nm estradiol-blank).

[2] = tested on: MCF-7 breast cancer cells; assay: MCF-7 cell proliferation assay ([3H]-thymidine incorporation); format: cell-based, human; details: CPM, FIG. 11
Description: MCF-7 potency=(pEC50 or pIC50)(% cpm max or % cpm min).
Cell proliferation of MCF-7 breast cancer cells was determined by [^3H]-thymidine incorporation. Compounds were tested for their potential to either stimulate MCF-7 proliferation or inhibit proliferation. An EC50 or IC50 was determined for each compound tested.

For 4-OH tamoxifen, the “K7P2 peptide binding to ERα LBD over basal” value (ERα LBD) was “decreased binding of K7P2 over basal and not”, the “RAC3 (671-697) binding to ERα LBD relative to unliganded ERα LBD” value (ERα LBD) was “decreases” and the “T1P3 peptide binding to ERα LBD over basal” value (ERα LBD) was “increased binding of T1P3 over basal”. For the same compound, the “binding of ERα LBD to coactivator, coregulator and corepressor peptides compared to basal (no compound)” value (ERα LBD) was “reduced the amount of peptide binding compared to basal binding; also recorded: decreases or only slightly increases binding”.

For COc1ccc2c(c1)OC(C)(C)[C@@H](c1ccccc1)[C@@H]2c1ccc(OCCN2CCCC2)cc1 [levormeloxifene], the “K7P2 peptide binding to ERα LBD over basal” value (ERα LBD; phage-identified peptide K7P2, 1 μM compound, FIG. 9) was “not”.

For O=C(c1ccc(OCCN2CCCCC2)cc1)c1c(-c2ccc(O)cc2)sc2cc(O)ccc12 [raloxifene], the “stimulation of intrinsic alkaline phosphatase in Ishikawa cells” value [1] was “very low stimulatory activity” and the “MCF-7 cell proliferation with increasing compound concentration” value [2] was “cell proliferation decreased”.
